Results reported in patent US10323007B1, “N2N N4-disubstituted quinazoline-2,4-diamines and uses thereof” (University of South Florida, priority 2016, dated 2019).
≈ marks a conversion by molar mass, not a printed value. Like-named read-outs stand apart in the source and are kept apart here.

Tests used:
A. baumannii 1649 [1] = experiment: MIC assay, strain 1649; format: cell-based, Acinetobacter baumannii; conditions: Acinetobacter baumannii, strain 1649
Procedure: (§1) MIC and MBC assays were performed in this study as documented by us previously.^17,23,24,25 The A. baumannii strains used are detailed in Table 7.

[2] = tested on: A. baumannii 1650 biofilm; experiment: biofilm eradication determination assay, strain 1650; format: cell-based, Acinetobacter baumannii; conditions: 90% biofilm eradication, Table 8
Procedure: (§2) These assays were performed as described by us previously,^26,24 as follows. Each of the A. baumannii strains were grown overnight in Mueller Hinton Broth (MHB). The next day these were used to seed fresh MHB to an OD600 of 0.5, with 150 μL then added to the wells of a 96 well plate and grown for 24 hours at 37° C. After 24 hours, the planktonic bacteria were carefully removed and fresh MHB was added with increasing concentrations of lead quinazolines. After incubation at 37° C. for 24 hours, planktonic cells were removed and biofilms were washed three times with phosphate buffered saline (PBS). Biofilms were then resuspended in PBS and plated for cell viability on tryptic soy agar. Biofilm recovery was assessed compared to no drug controls, and determined as percent eradication. This was used to determine MBEC90 values (Minimal Biofilm Eradication Concentration), where the viability of cells within the biofilm was reduced by 90%.

[3] = tested on: A. baumannii 1403 biofilm; experiment: biofilm eradication determination assay, strain 1403; format: cell-based, Acinetobacter baumannii; conditions: 90% biofilm eradication, Table 8
Procedure: as §2

A. baumannii 1403 [4] = experiment: minimal bactericidal concentration (MBC) assay, strain 1403; format: cell-based; conditions: Acinetobacter baumannii, Table 8, read-out: MBC90 1403
Excerpt: (§3) Lead quinazolines 4, 5, 26, 29, 27, and 30 were selected to be further evaluated for antimicrobial effects. The first assay utilized was a minimal bactericidal concentration (MBC) assay, to assess whether leads compounds were bacteriostatic or bactericidal. The six lead agents were screened to identify their MBC90 towards each of the six A. baumannii isolates used in the SAR studies (Table 8), however for simplicity only the representative data for isolate 1646 is detailed below (Table 6). […] Further to this, we were able to obtain complete eradication of bacterial growth for these two compounds at 1 μM for 24 and 5 μM for 25.
as §1

A. baumannii 1652 [5] = experiment: minimal bactericidal concentration (MBC) assay, strain 1652; format: cell-based; conditions: Acinetobacter baumannii, Table 8, read-out: MBC90 1652
Excerpt: as §3, §1

[6] = tested on: A. baumannii 1646 biofilm; experiment: biofilm eradication determination assay, strain 1646; format: cell-based, Acinetobacter baumannii; conditions: for MBEC90: Table 6, representative data for isolate 1646; for reduction in biofilm viability: at 50 μM; for reduction in biofilm viability / MBEC90 1646: strain 1646; for MBEC90 1646: 90% biofilm eradication, Table 8 and text
Procedure: as §2

A. baumannii 1650 [7] = experiment: MIC assay, strain 1650; format: cell-based, Acinetobacter baumannii; conditions: Acinetobacter baumannii, strain 1650
Procedure: as §1

A. baumannii 1650 [8] = experiment: minimal bactericidal concentration (MBC) assay, strain 1650; format: cell-based; conditions: Acinetobacter baumannii, Table 8, read-out: MBC90 1650
Excerpt: as §3, §1

A. baumannii 1652 [9] = experiment: MIC assay, strain 1652; format: cell-based, Acinetobacter baumannii; conditions: Acinetobacter baumannii, strain 1652
Procedure: as §1

[10] = tested on: A. baumannii 1649 biofilm; experiment: biofilm eradication determination assay, strain 1649; format: cell-based, Acinetobacter baumannii; conditions: 90% biofilm eradication, Table 8
Procedure: as §2

A. baumannii 1403 [11] = experiment: MIC assay, strain 1403; format: cell-based, Acinetobacter baumannii; conditions: Acinetobacter baumannii, strain 1403
Procedure: as §1

human HepG2 cells = format: cell-based; conditions: for LD50(HepG2): human, 48 h
Procedure: Cytotoxicity assays were performed using human HepG2 cells (human liver epithelial with hepatocellular carcinoma), as described by us previously.^17,24 Cells were cultured in Dulbecco's modified eagle medium (DMEM), supplemented with 10% fetal bovine serum and 1% penicillin-streptomycin for 3 days at 37° C. and 5% CO2. Cells were then diluted to 1×10^5 ml^−1 using fresh DMEM and added to 96 well tissue culture plates at a volume of 100 μL. Plates were incubated for 24 hours at 37° C. and 5% CO2, allowing the cells to adhere to the plastic. […] Plates were then incubated for 48 hours at 37° C. and 5% CO2. After 48 hours the DMEM was removed and 100 μL of new media was added containing MTT (3-(4, 5-dimethylthiazol-2-yl)-2, 5-diphenyltetrazolium bromide), followed by incubation for four hours at 37° C. and 5% CO2. […] Lead compounds were solvated in 100% DMSO for these studies, which served as the negative control. LD50 values were determined for each compound by comparison to vehicle only controls.

A. baumannii 1646 [12] = experiment: MIC assay, strain 1646; format: cell-based, Acinetobacter baumannii; conditions: Acinetobacter baumannii
Procedure: as §1

[13] = tested on: A. baumannii 1652 biofilm; experiment: biofilm eradication determination assay, strain 1652; format: cell-based, Acinetobacter baumannii; conditions: 90% biofilm eradication, Table 8
Procedure: as §2

A. baumannii 1646 [14] = experiment: minimal bactericidal concentration (MBC) assay, strain 1646; format: cell-based, Acinetobacter baumannii
Excerpt: as §3, §1

A. baumannii 1649 [15] = experiment: minimal bactericidal concentration (MBC) assay, strain 1649; format: cell-based; conditions: Acinetobacter baumannii, Table 8, read-out: MBC90 1649
Excerpt: as §3, §1

A. baumannii 1651 [16] = experiment: minimal bactericidal concentration (MBC) assay, strain 1651; format: cell-based; conditions: Acinetobacter baumannii, Table 8, read-out: MBC90 1651
Excerpt: as §3, §1

A. baumannii 1651 [17] = experiment: MIC assay, strain 1651; format: cell-based, Acinetobacter baumannii; conditions: Acinetobacter baumannii, strain 1651
Procedure: as §1

[18] = tested on: A. baumannii 1651 biofilm; experiment: biofilm eradication determination assay, strain 1651; format: cell-based, Acinetobacter baumannii; conditions: 90% biofilm eradication, Table 8
Procedure: as §2

A. baumannii = experiment: MIC assay, A. baumannii isolates (strain not given); format: cell-based, Acinetobacter baumannii; conditions: Acinetobacter baumannii; most isolates besides the 1652 strain; read-out: MIC against most isolates
Procedure: as §1

[19] = Tables 1, 3, 4, 5 and footnotes, read-out: 1649 MIC
[20] = lead quinazolines, Table 8, read-out: MIC 1649
[21] = Tables 1, 3, 4, 5 and footnotes, read-out: 1650 MIC
[22] = lead quinazolines, Table 8, read-out: MIC 1650
[23] = Tables 1, 3, 4, 5 and footnotes, read-out: 1652 MIC
[24] = lead quinazolines, Table 8, read-out: MIC 1652
[25] = Tables 1, 3, 4, 5 and footnotes, read-out: 1403 MIC
[26] = lead quinazolines, Table 8, read-out: MIC 1403
[27] = at 25 μM (highest concentration tested)
[28] = Table 6, representative data for isolate 1646, read-out: MIC
[29] = strain 1646, Tables 1, 3, 4, 5 and footnotes, read-out: 1646 MIC
[30] = strain 1646, lead quinazolines, Table 8, read-out: MIC 1646
[31] = Acinetobacter baumannii, 1646, strain 1646, Table 8 and text, read-out: MBC90 1646
[32] = Acinetobacter baumannii, Table 6, representative data for isolate 1646, read-out: MBC90
[33] = Tables 1, 3, 4, 5 and footnotes, read-out: 1651 MIC
[34] = lead quinazolines, Table 8, read-out: MIC 1651

Compound	MIC (A. baumannii 1649 [1]; [19]) [µM]	MIC (A. baumannii 1649 [1]; [20]) [µM]	MBEC90 1650 [2] [µM]	MBEC90 1403 [3] [µM]	MBC (A. baumannii 1403 [4]) [µM]	MBC (A. baumannii 1652 [5]) [µM]	MBEC90 [6] [µM]	MBEC90 1646 [6] [µM]	MIC (A. baumannii 1650 [7]; [21]) [µM]	MIC (A. baumannii 1650 [7]; [22]) [µM]	MBC (A. baumannii 1650 [8]) [µM]	MIC (A. baumannii 1652 [9]; [23]) [µM]	MIC (A. baumannii 1652 [9]; [24]) [µM]	MBEC90 1649 [10] [µM]	MIC (A. baumannii 1403 [11]; [25]) [µM]	MIC (A. baumannii 1403 [11]; [26]) [µM]	HepG2 cell viability (human HepG2 cells; [27]) [%]	LD50(HepG2) (human HepG2 cells) [µM]	MIC (A. baumannii 1646 [12]; [28]) [µM]	MIC (A. baumannii 1646 [12]; [29]) [µM]	also measured
CCC/C=C/c1ccc2nc(NCc3ccccc3)nc(NC)c2c1 [Compound 26, (E)-N^2-Benzyl-N^4-methyl-6-(pent-1-en-1-yl)quinazoline-2,4-diamine]	10 (≈ 3.32 µg/mL)	10 (≈ 3.32 µg/mL)	50	24	40 (≈ 13.3 µg/mL)	23 (≈ 7.65 µg/mL)	8.9	8.9	25 (≈ 8.31 µg/mL)	25 (≈ 8.31 µg/mL)	16 (≈ 5.32 µg/mL)	30 (≈ 9.97 µg/mL)	30 (≈ 9.97 µg/mL)	63	10 (≈ 3.32 µg/mL)	10 (≈ 3.32 µg/mL)	41	16	1 (≈ 0.332 µg/mL)	2 (≈ 0.665 µg/mL)	reduction in biofilm viability [6]: 1.4 log; HepG2 cell viability (human HepG2 cells; at 12 μM): 49%; MIC (A. baumannii 1646 [12]; [30]): 1 µM (≈ 0.332 µg/mL); MBEC90 1652 [13]: 97 µM; MBC (A. baumannii 1646 [14]; [31]): 1.8 µM (≈ 0.598 µg/mL); MBC (A. baumannii 1646 [14]; [32]): 1.8 µM (≈ 0.598 µg/mL); complete bacterial eradication concentration as multiple of MIC (A. baumannii 1646 [14]; isolate 1646): 5 ×; concentration giving complete eradication of bacterial growth (A. baumannii 1646 [14]; isolate 1646): 5 µM; MBC (A. baumannii 1649 [15]): 10 µM (≈ 3.32 µg/mL); MBC (A. baumannii 1651 [16]): 5.7 µM (≈ 1.89 µg/mL); MIC (A. baumannii 1651 [17]; [33]): 2 µM (≈ 0.665 µg/mL); MIC (A. baumannii 1651 [17]; [34]): 2 µM (≈ 0.665 µg/mL); MBEC90 1651 [18]: 24 µM
CCCCCc1ccc2nc(NCc3ccccc3)nc(NC)c2c1 [Compound 27, N^2-Benzyl-N^4-methyl-6-pentylquinazoline-2,4-diamine]	2 (≈ 0.669 µg/mL)	10 (≈ 3.34 µg/mL)	49	12	20 (≈ 6.69 µg/mL)	23 (≈ 7.69 µg/mL)	11.5	12	2 (≈ 0.669 µg/mL)	10 (≈ 3.34 µg/mL)	20 (≈ 6.69 µg/mL)	10 (≈ 3.34 µg/mL)	20 (≈ 6.69 µg/mL)	62	2 (≈ 0.669 µg/mL)	15 (≈ 5.02 µg/mL)	31	12	1 (≈ 0.334 µg/mL)	2 (≈ 0.669 µg/mL)	MIC (A. baumannii): 2 µM (≈ 0.669 µg/mL); MIC (A. baumannii 1646 [12]; [30]): 1 µM (≈ 0.334 µg/mL); MBEC90 1652 [13]: 64 µM; MBC (A. baumannii 1646 [14]; [31]): 1.1 µM (≈ 0.368 µg/mL); MBC (A. baumannii 1646 [14]; [32]): 1.1 µM (≈ 0.368 µg/mL); MBC (A. baumannii 1649 [15]): 43 µM (≈ 14.4 µg/mL); MBC (A. baumannii 1651 [16]): 4.1 µM (≈ 1.37 µg/mL); MIC (A. baumannii 1651 [17]; [33]): 2 µM (≈ 0.669 µg/mL); MIC (A. baumannii 1651 [17]; [34]): 10 µM (≈ 3.34 µg/mL); MBEC90 1651 [18]: 18 µM
CNc1nc(NCc2ccccc2)nc2ccc(C3=CCCCC3)cc12 [Compound 29, N^2-Benzyl-6-(cyclohex-1-en-1-yl)-N^4-methylquinazoline-2,4-diamine]	10 (≈ 3.44 µg/mL)	8 (≈ 2.76 µg/mL)	48	20	22 (≈ 7.58 µg/mL)	11 (≈ 3.79 µg/mL)	8.9	8.9	10 (≈ 3.44 µg/mL)	10 (≈ 3.44 µg/mL)	16 (≈ 5.51 µg/mL)	30 (≈ 10.3 µg/mL)	30 (≈ 10.3 µg/mL)	58	2 (≈ 0.689 µg/mL)	3 (≈ 1.03 µg/mL)	32	23	2 (≈ 0.689 µg/mL)	2 (≈ 0.689 µg/mL)	MIC (A. baumannii): 2 µM (≈ 0.689 µg/mL); reduction in biofilm viability [6]: 1.6 log; HepG2 cell viability (human HepG2 cells; at 12 μM): 42%; MIC (A. baumannii 1646 [12]; [30]): 2 µM (≈ 0.689 µg/mL); MBEC90 1652 [13]: 77 µM; MBC (A. baumannii 1646 [14]; [31]): 1.5 µM (≈ 0.517 µg/mL); MBC (A. baumannii 1646 [14]; [32]): 1.5 µM (≈ 0.517 µg/mL); MBC (A. baumannii 1649 [15]): 9.1 µM (≈ 3.13 µg/mL); MBC (A. baumannii 1651 [16]): 4 µM (≈ 1.38 µg/mL); MIC (A. baumannii 1651 [17]; [33]): 2 µM (≈ 0.689 µg/mL); MIC (A. baumannii 1651 [17]; [34]): 2 µM (≈ 0.689 µg/mL); MBEC90 1651 [18]: 21 µM
